In EPA's ToxValDB 9.5 (doi:10.2903/j.efsa.2016.4500):
≈ marks a conversion by molar mass, not a printed value.

Key:
Folsomia candida = details: chronic/long-term; duration: 28 days; reproduction
Apis mellifera = details: acute, mortality
Bibionidae = details: chronic/long-term; duration: 28 days
Canidae = details: chronic; duration: 1 years; oral; Dog Other; gross pathology
Oncorhynchus mykiss = details: acute; duration: 96 hours; mortality
Oryctolagus sp. = details: reproduction developmental; clinical signs
Rattus norvegicus = details: for LD50: acute, mortality
Tagia sp. = details: chronic/long-term; duration: 56 days; reproduction
Aphidius rhopalosiphi = assay: LR50; higher = less toxic; details: not reported; mortality
Typhlodromus pyri = assay: LR50; higher = less toxic; details: not reported; mortality
Pimephales promelas = details: acute; duration: 96 hours; mortality
[1] = chronic, duration: 2 years, organ weight

Row | Structure (SMILES) | NOEC (Folsomia candida) | LD50 (Apis mellifera; dermal) | LD50 (Apis mellifera; oral, unspecified) | NOEC (Bibionidae) | NOAEL (Canidae) | LD50 (Colinus virginianus; acute, oral, mortality) | NOEC (Colinus virginianus; chronic) | LC50 (Oncorhynchus mykiss) | NOAEL (Oryctolagus sp.) | LD50 (Rattus norvegicus; oral) | NOAEL (Rattus norvegicus; [1]) | NOAEL (Rattus norvegicus; reproduction developmental, reproduction) | NOEC (Tagia sp.) | LR50 (Aphidius rhopalosiphi) | LR50 (Typhlodromus pyri) | LC50 (Pimephales promelas) | LD50 (Rattus norvegicus) | NOAEL (Rattus norvegicus; chronic)
1 | Oc1ccc(Cl)cc1Cl [2,4-Dichlorophenol] | 0.63 mg/kg | – | – | – | – | – | – | – | – | – | – | – | – | – | – | – | – | –
2 | O=C(O)CCCOc1ccc(Cl)cc1Cl [2,4-Dichlorophenoxybutyric acid] | – | > 100 µg/piece | > 100 µg/piece | 24.6 mg/kg | 2.04 mg/kg-day | 1540 mg/kg | 101 mg/kg-day | 3 µg/mL (≈ 12 µM) | 30 mg/kg-day | 1470 mg/kg | 2.48 mg/kg-day | 22.5 mg/kg-day | 82.1 mg/kg | > 1800 g/ha | > 1800 g/ha | – | – | –
3 | O=C(O)COc1ccc(Cl)cc1Cl [2,4-Dichlorophenoxyacetic acid] | – | > 100 µg/piece | 94 µg/piece | – | 2.04 mg/kg-day | – | – | – | 30 mg/kg-day | – | 2.48 mg/kg-day | – | 62.5 mg/kg | – | – | 100 µg/mL (≈ 452 µM) | 486 mg/kg | 20.6 mg/kg-day
